The text below walks through data of patent US4812469A, “Acetamides derived from 2,3-dihydro-3-phenyl-2-benzofuranone” (Adir Et Cie, priority 1987, dated 1989).

Structures can show the parent of a compound that is named as a salt. Where two headings read alike, the source gives them in different places.

Assay [1] concerns survival of cerebral tissue during acute hypoxia. Put plainly: Acute hypobaric hypoxia in mice, survival time of the brain (final respiratory gasp). In kind it is in vivo, mice (male CD1). The procedure: (§1) The compounds of the present invention were tested in respect of their capacity to prolong the survival of cerebral tissue during acute hypoxia in mice, or to maintain the level of tissue energy-rich compounds in rats subjected to a fall in the oxygen supply [Pharmacology of Cerebral Ischemia, ([…]) p. 334-339 Elsevier Science Publishers B.V., J. Krieglstein ed.]. […] Forsch. Drug Res. (1986), 36 II No. 9, p. 1314-1320].
The survival of the brain is assessed by measuring the time at which the final respiratory gasp is observed.
The survival time of a treated batch is compared with that of a control batch receiving only the solvent.

Assay [2] has as its system tissue energy-rich compounds (ATP, ADP, AMP) of the brain. The experiment in a line: Acute normobaric hypoxia in rats, brain tissue energy-rich compounds (ATP level and energy content). In kind it is in vivo, rats (male Fischer 344). As to conditions: for % inhibition of the effects of hypoxia: ATP / % inhibition of the effects of hypoxia: EC (energy content): 3% oxygen for 2 minutes. The procedure:
as §1
Whereas the control rats breathe a gaseous mixture containing 21% of oxygen and 79% of nitrogen, the rats subjected to hypoxia breath a mixture of 3% oxygen and 97% nitrogen for 2 minutes.
At the end of the hypoxic period, the animals are rapidly sacrificed by total immersion in liquid nitrogen. The frozen brain is removed and the energy-rich compounds (ATP, ADP, AMP) are extracted and assayed by the luciferin luminescence method.
The tissue energy content (EC) is calculated according to ATKINSON's formula: [formula]

Setting [3] is: Mus musculus, ip, 30 mg/kg I.P., 30 minutes before hypoxia (160 mbar), mice, vs control batch, read-out: Percentage increase in the survival time.
The mark [4] stands for this setting: Mus musculus, ip, 100 mg/kg I.P., 30 minutes before hypoxia (160 mbar), mice, vs control batch, read-out: Percentage increase in the survival time.
Where [5] appears, read: 100 mg/kg I.P., listed as pyritinol.
Where [6] appears, read: Mus musculus, ip, read-out: Percentage increase in the survival time.

On to `Cc1ncc(CSSCc2cnc(C)c(O)c2CO)c(CO)c1O` [Pyritinol, pyritinol], for which the “significance of the protection (brain survival time)” value in assay [1] (100 mg/kg, mice, p<0.05) is “significant”. Further, the ILS at 30 mg/kg in assay [1] (setting [3]) worked out at 13%. Further, the ILS at 100 mg/kg in assay [1] (setting [4]) was found to be 27%. Besides, the “% inhibition of the effects of hypoxia: ATP” value (“% inhibition … ATP” for short) in assay [2] (30 mg/kg I.P.) amounted to 11.1%; in assay [2] (100 mg/kg I.P.), 23.3%; in assay [2] (setting [5]), 23%. For the same compound, the results for the “% inhibition of the effects of hypoxia: EC (energy content)” value (“% inhibition … (energy content)” for short) in assay [2] (30 mg/kg I.P.), in assay [2] (100 mg/kg I.P.) and in assay [2] (setting [5]) were 16.6%, 35.2% and 35%, respectively.

With `O=C1Oc2ccc(CC(=O)N3CCN(Cc4ccc5c(c4)OCO5)CC3)cc2C1c1ccccc1` (centres unmarked) [Example 4], in assay [1] (setting [6]), the ILS at 3 mg/kg was 43%, the ILS at 10 mg/kg stood at 49%, the ILS at 30 mg/kg was determined as 54% and the ILS at 100 mg/kg amounted to 133%.

On to `NC(=O)Cc1cccc2c1OC(=O)C2c1ccccc1` (centres unmarked) [Example 8, 2-(2,3-Dihydro-2-oxo-3-phenyl-7-benzofuranyl)acetamide], for which, in assay [1] (setting [4]), the ILS at 100 mg/kg stood at 13%.

In the case of `NC(=O)CN1CCCC1=O` [Piracetam, piracetam, reference compound], the ILS at 100 mg/kg in assay [1] (setting [4]) is 11%.

On to `NC(=O)Cc1ccc2c(c1)C(c1ccccc1)C(=O)O2` (centres unmarked) [Example 1, 2-(2,3-Dihydro-2-oxo-3-phenyl-5-benzofuranyl)acetamide], for which the ILS at 3 mg/kg in assay [1] (Mus musculus, ip, 3 mg/kg I.P., 30 minutes before hypoxia (160 mbar), mice, vs control batch, read-out: Percentage increase in the survival time) is 24%. Moreover, the ILS at 30 mg/kg in assay [1] (setting [3]) worked out at 46%. The ILS at 100 mg/kg in assay [1] (setting [4]) was 170%. Moreover, in assay [2] (30 mg/kg I.P.), the “% inhibition … ATP” value is 64.6% and the “% inhibition … (energy content)” value is reported as 66%. The “effect on the ATP level and the energy content (in words)” value in assay [2] (30 mg/kg, compared with meclofenoxate 300 mg/kg) is “Such an effect is observed with a dose of 30 mg/kg”.

For the compound `CN(C)CCOC(=O)COc1ccc(Cl)cc1` [Meclofenoxate, meclofenoxate, reference compound], in assay [1] (setting [6]), the ILS at 30 mg/kg is 4% and the ILS at 100 mg/kg amounted to 22%. In assay [2] (300 mg/kg I.P.), the “% inhibition … ATP” value is on record as 59.7% and the “% inhibition … (energy content)” value amounted to 69.6%.

Consider `NC(=O)Cc1cc(Cl)cc2c1OC(=O)C2c1ccccc1` (centres unmarked) [Example 9, 2-(5-Chloro-2,3-dihydro-2-oxo-3-phenyl-7-benzofuranyl)acetamide], for which the ILS at 100 mg/kg in assay [1] (setting [4]) came out at 23%.

In the case of `CN1CCN(C(=O)Cc2ccc3c(c2)C(c2ccccc2)C(=O)O3)CC1` (centres unmarked) [Example 5, 2-(2,3-Dihydro-2-oxo-3-phenyl-5-benzofuranyl)-1-(4-methylpiperazinyl)-1-oxoethane tartrate], in assay [1] (setting [6]), the ILS at 100 mg/kg came out at 111%.

As to `O=C1Oc2ccc(CC(=O)N3CCN(c4ccc(C(F)(F)F)cn4)CC3)cc2C1c1ccccc1` (centres unmarked) [Example 3, 2-(2,3-Dihydro-2-oxo-3-phenyl-5-benzofuranyl)-1-[4-(5-trifluoromethyl-2-pyridyl)piperazinyl]-1-oxoethane], the ILS at 30 mg/kg in assay [1] (setting [3]) amounted to 36%. In addition, in assay [1] (setting [4]), the ILS at 100 mg/kg was found to be 57%.
